# From patent US20190152986A1, “CRYSTAL FORM A OF MILBEMYCIN A3 OXIME AND PREPARATION METHOD THEREOF” (Zhejiang Hisun Pharmaceutical Co., Ltd., priority 2016, published 2019)
# Tests used:
# Type in all cases: physicochemical
# [1] = Oxidative degradation (30% hydrogen peroxide, 24 hours)
# Protocol: 1) Oxidative Degradation A sample of 50 mg was weighed accurately and added to a 100.0 ml volumetric flask, dissolved by adding 10 ml methanol, 1.0 ml of 30% hydrogen peroxide was added, standing for 24 hours, then was diluted to the scale with methanol.
# (§1) The HPLC conditions for content determination are as follows: […]
# [2] = Protection from light (black PE bag and aluminum foil bag in light box, 18 hrs)
# Protocol: About 600 mg of the sample was weighed, placed evenly in a weighing bottle, the weighing bottle containing the sample was put into a black PE bag, and then the PE bag was packaged with an aluminum foil bag, the aluminum foil bag was placed into a light box with an illuminance of 600 w/m^2. After illumination of 18 hrs, taken out, placed into a desiccator and cooled to room temperature, and the weight loss on drying was measured.
# as §1
# [3] = Degradation stability test: original sample and overall comparison (HPLC content determination)
# Source text: Meanwhile, the degradation stabilities of A3/A4 oxime and the crystal form A of A3 oxime were compared in the invention, and the degradation conditions are as follows:
# as §1
# [4] = Photodegradation (light box, 600 w/m^2, 24 hrs)
# Protocol: According to the ICH requirement, the total illuminance requirement of 200 w·hr/m^2 and 1,200,000 lux·hr is required for photodegradation. If the illuminance is 600 w/m^2, the ICH requirement is met, and the illumination time needs at least 9 hrs.
# Approximately 600 mg of the sample was weighed, placed evenly in a weighing bottle, placed into a light box with an illuminance of 600 w/m^2 and illuminated for 24 hrs, taken out, placed into a desiccator and cooled to room temperature, and the weight loss on drying was measured.
# as §1
# [5] = Oxidation: 30% hydrogen peroxide in methanol, standing for 24 hours
# [6] = Protection from light: PE bag and aluminum foil bag, light box 600 w/m^2, 18 hrs
# [7] = Illumination: 600 w/m^2 for 24 hrs
compound,measurement,setting,value
"CC1=C[C@H]2C(=O)O[C@H]3C[C@@H](C/C=C(\C)C[C@@H](C)/C=C/C=C4\CO[C@H](/C1=N\O)[C@@]42O)O[C@@]1(CC[C@H](C)[C@@H](C)O1)C3 [crystal form A of A3 oxime, Milbemycin A3 oxime]",Total Impurity increment,"[1]; Oxidation, versus original sample",−0.0847%
same,Content,[1]; [5],98.3%
same,Total Impurity,[1]; [5],0.2368%
same,Total Impurity increment,"[2]; Protection from light, versus original sample",0.0156%
same,Content,[2]; [6],96.9%
same,Total Impurity,[2]; [6],0.3371%
same,Content,"[3]; Original sample, HPLC",98.1%
same,Total Impurity,"[3]; Original sample, HPLC",0.3215%
same,stability (degradation stability test results),[3]; overall comparison of Table 2,significantly better than that of A3/A4 oxime
same,Total Impurity increment,"[4]; Illumination, versus original sample",1.2485%
same,Content,[4]; [7],96.8%
same,Total Impurity,[4]; [7],1.57%
